Common to all, as to format: binding
Experiment [1] deals with T1, HeLa cell extract proteins (Homo sapiens, UniProt P11310).
T1 construct: endogenous in cells; host or cells: HeLa cell extract
T1 sequence (P11310 26-421): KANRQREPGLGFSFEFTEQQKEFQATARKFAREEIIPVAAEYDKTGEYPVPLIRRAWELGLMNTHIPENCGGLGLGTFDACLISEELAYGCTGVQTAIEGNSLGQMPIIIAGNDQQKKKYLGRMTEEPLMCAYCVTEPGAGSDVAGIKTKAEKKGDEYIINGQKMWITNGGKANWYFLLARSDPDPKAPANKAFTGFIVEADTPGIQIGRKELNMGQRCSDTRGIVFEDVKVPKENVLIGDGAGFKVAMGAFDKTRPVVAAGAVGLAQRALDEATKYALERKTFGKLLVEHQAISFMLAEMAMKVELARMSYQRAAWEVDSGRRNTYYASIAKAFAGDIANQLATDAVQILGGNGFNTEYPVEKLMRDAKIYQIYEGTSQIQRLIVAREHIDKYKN

Experiment [2] has as its target T2, HeLa cell extract proteins (Homo sapiens, UniProt P23396).
T2 construct: endogenous in cells; host or cells: HeLa cell extract

Experiment [3] deals with T3, HeLa cell extract proteins (Homo sapiens, UniProt Q00610).
T3 construct: endogenous in cells; host or cells: HeLa cell extract
T3 sequence (Q00610 whole entry): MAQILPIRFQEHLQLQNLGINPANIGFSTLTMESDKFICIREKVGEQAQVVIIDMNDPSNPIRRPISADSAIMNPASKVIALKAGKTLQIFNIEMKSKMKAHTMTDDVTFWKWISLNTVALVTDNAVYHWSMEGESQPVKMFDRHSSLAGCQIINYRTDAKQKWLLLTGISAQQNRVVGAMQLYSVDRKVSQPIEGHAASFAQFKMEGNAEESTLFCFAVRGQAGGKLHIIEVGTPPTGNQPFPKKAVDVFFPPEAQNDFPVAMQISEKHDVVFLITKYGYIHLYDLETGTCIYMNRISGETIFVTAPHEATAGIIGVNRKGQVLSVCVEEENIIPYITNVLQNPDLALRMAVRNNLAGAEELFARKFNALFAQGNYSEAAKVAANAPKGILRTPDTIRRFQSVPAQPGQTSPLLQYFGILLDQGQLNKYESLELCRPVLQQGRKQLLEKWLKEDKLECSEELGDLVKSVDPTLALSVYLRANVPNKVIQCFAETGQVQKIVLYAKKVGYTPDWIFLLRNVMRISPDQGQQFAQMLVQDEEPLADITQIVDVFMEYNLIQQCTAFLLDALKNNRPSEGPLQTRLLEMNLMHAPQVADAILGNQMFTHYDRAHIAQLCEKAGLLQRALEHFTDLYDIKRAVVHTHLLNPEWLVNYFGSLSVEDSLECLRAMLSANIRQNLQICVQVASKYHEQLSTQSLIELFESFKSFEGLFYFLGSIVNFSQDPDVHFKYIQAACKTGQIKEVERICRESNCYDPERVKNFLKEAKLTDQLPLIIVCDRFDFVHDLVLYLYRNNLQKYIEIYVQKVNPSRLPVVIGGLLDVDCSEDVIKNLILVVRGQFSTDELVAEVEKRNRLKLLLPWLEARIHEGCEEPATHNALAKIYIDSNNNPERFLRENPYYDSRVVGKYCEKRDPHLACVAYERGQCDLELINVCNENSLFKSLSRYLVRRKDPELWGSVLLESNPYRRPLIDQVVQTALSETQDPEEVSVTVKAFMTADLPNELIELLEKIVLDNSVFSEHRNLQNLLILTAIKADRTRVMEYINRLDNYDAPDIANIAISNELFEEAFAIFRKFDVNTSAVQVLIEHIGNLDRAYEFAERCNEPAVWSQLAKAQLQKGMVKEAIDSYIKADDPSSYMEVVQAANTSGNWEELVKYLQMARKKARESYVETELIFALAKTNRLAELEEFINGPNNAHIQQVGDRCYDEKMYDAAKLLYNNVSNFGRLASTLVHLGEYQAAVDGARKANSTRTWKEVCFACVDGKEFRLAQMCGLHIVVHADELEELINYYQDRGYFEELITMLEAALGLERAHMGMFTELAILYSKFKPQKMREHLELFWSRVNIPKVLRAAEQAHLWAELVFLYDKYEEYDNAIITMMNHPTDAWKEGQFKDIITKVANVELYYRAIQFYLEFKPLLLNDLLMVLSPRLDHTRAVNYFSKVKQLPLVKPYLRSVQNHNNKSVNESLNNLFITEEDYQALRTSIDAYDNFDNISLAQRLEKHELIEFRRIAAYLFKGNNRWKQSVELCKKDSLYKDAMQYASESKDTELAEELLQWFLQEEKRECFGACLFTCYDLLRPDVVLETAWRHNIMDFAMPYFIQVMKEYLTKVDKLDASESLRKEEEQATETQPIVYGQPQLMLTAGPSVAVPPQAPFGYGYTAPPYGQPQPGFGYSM

Experiment [4] has as its target T4, HeLa cell extract proteins (Homo sapiens, UniProt Q09161).
T4 construct: endogenous in cells; host or cells: HeLa cell extract
T4 sequence (Q09161 1-790): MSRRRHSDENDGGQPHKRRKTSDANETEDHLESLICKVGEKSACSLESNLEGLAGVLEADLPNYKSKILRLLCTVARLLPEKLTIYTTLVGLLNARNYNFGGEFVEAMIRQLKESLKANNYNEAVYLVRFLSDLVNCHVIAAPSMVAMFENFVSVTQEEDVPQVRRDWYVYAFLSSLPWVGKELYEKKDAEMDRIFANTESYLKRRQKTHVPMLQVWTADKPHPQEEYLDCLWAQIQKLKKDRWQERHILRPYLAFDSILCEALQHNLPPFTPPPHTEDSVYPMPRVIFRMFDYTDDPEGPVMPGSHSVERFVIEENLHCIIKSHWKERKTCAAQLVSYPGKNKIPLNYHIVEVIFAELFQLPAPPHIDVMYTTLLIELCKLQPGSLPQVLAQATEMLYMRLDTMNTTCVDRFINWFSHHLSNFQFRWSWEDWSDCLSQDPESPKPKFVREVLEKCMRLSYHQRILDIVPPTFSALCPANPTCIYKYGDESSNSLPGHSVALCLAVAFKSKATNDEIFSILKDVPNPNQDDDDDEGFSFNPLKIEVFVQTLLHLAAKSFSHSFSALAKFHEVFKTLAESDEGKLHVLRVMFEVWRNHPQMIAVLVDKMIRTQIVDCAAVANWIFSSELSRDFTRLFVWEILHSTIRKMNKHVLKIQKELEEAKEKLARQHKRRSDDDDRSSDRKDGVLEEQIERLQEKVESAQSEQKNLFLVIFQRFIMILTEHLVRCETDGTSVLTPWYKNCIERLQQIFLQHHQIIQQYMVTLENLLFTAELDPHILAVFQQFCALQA

Experiment [5] concerns the target T5, HeLa cell extract proteins (Homo sapiens, UniProt Q6P2E9).
T5 construct: endogenous in cells; host or cells: HeLa cell extract
T5 sequence (Q6P2E9 1-1401): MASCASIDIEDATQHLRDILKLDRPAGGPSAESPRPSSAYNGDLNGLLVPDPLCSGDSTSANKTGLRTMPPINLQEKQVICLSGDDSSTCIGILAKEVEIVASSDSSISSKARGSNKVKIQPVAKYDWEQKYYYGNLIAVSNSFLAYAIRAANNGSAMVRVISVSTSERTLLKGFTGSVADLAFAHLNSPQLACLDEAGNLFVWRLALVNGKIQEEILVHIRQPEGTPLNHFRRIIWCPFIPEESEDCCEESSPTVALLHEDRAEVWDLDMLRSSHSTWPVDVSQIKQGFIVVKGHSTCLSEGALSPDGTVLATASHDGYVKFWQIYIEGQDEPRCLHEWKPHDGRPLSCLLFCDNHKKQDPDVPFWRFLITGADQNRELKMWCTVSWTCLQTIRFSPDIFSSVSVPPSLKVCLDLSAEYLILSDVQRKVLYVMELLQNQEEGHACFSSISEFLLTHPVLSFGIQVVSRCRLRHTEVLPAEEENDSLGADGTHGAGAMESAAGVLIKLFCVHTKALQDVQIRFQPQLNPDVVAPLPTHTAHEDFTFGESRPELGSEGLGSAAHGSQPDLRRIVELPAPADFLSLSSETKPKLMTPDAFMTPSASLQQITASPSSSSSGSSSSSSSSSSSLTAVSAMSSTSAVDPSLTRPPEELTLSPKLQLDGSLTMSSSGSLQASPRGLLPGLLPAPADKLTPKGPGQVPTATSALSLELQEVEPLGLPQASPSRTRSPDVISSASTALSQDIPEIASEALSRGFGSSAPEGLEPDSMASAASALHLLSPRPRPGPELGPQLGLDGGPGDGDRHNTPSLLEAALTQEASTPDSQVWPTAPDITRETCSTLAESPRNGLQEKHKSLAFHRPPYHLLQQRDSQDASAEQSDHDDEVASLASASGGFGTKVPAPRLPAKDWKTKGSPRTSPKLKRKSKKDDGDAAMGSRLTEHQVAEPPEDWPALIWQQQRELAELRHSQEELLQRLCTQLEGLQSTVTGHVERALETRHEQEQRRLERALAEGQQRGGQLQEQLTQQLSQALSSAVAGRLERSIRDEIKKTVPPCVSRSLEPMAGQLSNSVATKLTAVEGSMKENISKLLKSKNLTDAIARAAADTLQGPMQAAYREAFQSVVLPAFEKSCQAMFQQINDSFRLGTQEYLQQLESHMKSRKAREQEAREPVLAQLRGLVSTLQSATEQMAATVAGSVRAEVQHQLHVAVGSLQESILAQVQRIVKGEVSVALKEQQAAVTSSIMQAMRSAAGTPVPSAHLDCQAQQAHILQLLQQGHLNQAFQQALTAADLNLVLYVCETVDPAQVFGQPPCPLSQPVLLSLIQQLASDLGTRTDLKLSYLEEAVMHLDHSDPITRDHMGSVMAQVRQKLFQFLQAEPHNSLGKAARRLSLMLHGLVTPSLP

[6] abbreviates: HeLa, protein ACADM (HY[…] DKFZP686M24262).
Setting [7] is: HeLa, protein CLTC (ISOFORM 1 OF CLATHRIN HEAVY CHAIN 1).

Read-outs that look alike come from different tables or passages of the source.

Regarding `Nc1nc2c(c(=O)[nH]1)N(C=O)C(CNc1ccc(C(=O)N[C@@H](CCC(=O)O)C(=O)O)cc1)CN2` (some centres unmarked) [LEU, leucovorin], the “fold changes relative to vehicle control” value is recorded as 1.16 in experiment [1] (setting [6]); 1.08 in experiment [2] (HeLa, captured protein RPS3); 1.27 in experiment [3] (setting [7]); 0.81 in experiment [4] (protein NCBP1, HeLa); 1.03 in experiment [5] (HeLa, protein EDC4).

Take `Nc1nc2[nH]cc(CCc3ccc(C(=O)N[C@@H](CCC(=O)O)C(=O)O)cc3)c2c(=O)[nH]1` [PTX, pemetrexed]: the “fold changes relative to vehicle control” value in experiment [1] is given as 1.3; in experiment [2], 1.18; in experiment [3], 1.24; in experiment [4] it was 0.95; in experiment [5], 1.02.

As to `CCCCCCOc1ccc(Cc2cnc(N)nc2N)cc1` [compound 1], the “fold changes relative to vehicle control” value in experiment [1] (protein ACADM, HeLa) is 1.17; in experiment [2] (captured protein RPS3, HeLa), 1.08; in experiment [3] (protein CLTC, HeLa), 0.83; in experiment [4] (captured protein NCBP1, HeLa) it was 0.91; in experiment [5] (HeLa, protein EDC4), 0.87.

`CCCCCCOc1cccc(Cc2cnc(N)nc2N)c1` [compound 2]: the “fold changes relative to vehicle control” value came out at 1.75 in experiment [1] (protein ACADM, HeLa); 1.16 in experiment [2] (captured protein RPS3, HeLa); 1.07 in experiment [3] (protein CLTC, HeLa); 1.03 in experiment [4] (captured protein NCBP1, HeLa); 1.12 in experiment [5] (HeLa, protein EDC4).

On to `Nc1nc2cccc(-c3ccccc3)c2n1Cc1ccc(Cl)c(Cl)c1` [compound 3], for which the “fold changes relative to vehicle control” value in experiment [1] (protein ACADM, HeLa) came out at 1; in experiment [2] (captured protein RPS3, HeLa), 1.03; in experiment [3] (protein CLTC, HeLa), 1.2; in experiment [4] (captured protein NCBP1, HeLa), 0.96; in experiment [5] (HeLa, protein EDC4), 0.98.

For `NCCOCCOCC(=O)Nc1nc2ncc(CNc3ccc(C(=O)NC(CCC(=O)O)C(=O)O)cc3)nc2c(=O)[nH]1` (centres unmarked) [compound 6], the “fold changes relative to vehicle control” value in experiment [1] (HeLa, protein ACADM (HYPOTHETICAL PROTEIN DKFZP686M24262)) was determined as 1.43; in experiment [2] (HeLa, captured protein RPS3) it was 1.11; in experiment [3] (setting [7]), 1.11; in experiment [4] (protein NCBP1, HeLa) it was 0.89; in experiment [5] (HeLa, protein EDC4), 1.03.

As for `NCCCNc1ccc(C(=O)NC(CCC(=O)O)C(=O)O)cc1` (centres unmarked) [compound 7], the “fold changes relative to vehicle control” value came out at 1.06 in experiment [1] (setting [6]); 1.15 in experiment [2] (HeLa, captured protein RPS3); 1.18 in experiment [3] (setting [7]); 0.93 in experiment [4] (protein NCBP1, HeLa); 0.97 in experiment [5] (HeLa, protein EDC4).
